Results as given in patent US20250332143A1, “COMPOSITION COMPRISING ALOX5 INHIBITOR FOR PREVENTING OR TREATING SARCOPENIA” (PLUTO Inc., priority 2022, published 2025).

How the values were obtained:
FoxO3a = experiment: Western blot of FoxO3a phosphorylation and Atrogin-1 in Dex-treated myotubes; assay type: cell-based, mouse
Procedure: (§1) C2C12 murine skeletal muscle myoblasts were obtained from Koram Biotech (Republic of Korea). The cells were maintained in DMEM growth medium supplemented with 10% FBS, 1% penicillin, and streptomycin. When myoblasts proliferated to approximately 90%, they were differentiated into muscle fibers by treating them with DMEM differentiation medium supplemented with 2% HS, 1% penicillin, and streptomycin for 96 hours. Differentiated muscle fibers were treated with 10 μM Dex for 24 hours to induce sarcopenia. To evaluate the degree of differentiation of muscle cells, differentiating myoblasts were treated with the corresponding compound in differentiation medium for 24 or 48 hours. The concentration of intracellular protein was measured using the Bradford assay (Bio-Rad, USA, CA), and electrophoresis was performed by loading on 10% and 12% polyacrylamide gels. Afterwards, the separated proteins were transferred to a PVDF membrane, and the primary antibody used was diluted 1:1000 in TBS-T containing 5% skim milk and incubated overnight at 4° C. Secondary antibodies were diluted 1:2000 and incubated for 35 minutes at room temperature (RT). Band intensity was measured using ImageJ 1.52 software (National Institutes of Health, USA), and intracellular protein was normalized to α-tubulin.

LC3b, p62 = experiment: Western blot of autophagy markers LC3b I, LC3b II and p62 in Dex-treated myotubes; assay type: cell-based, mouse
Procedure: as §1

[1] = tested on: differentiating C2C12 myoblasts; experiment: Myogenesis of mouse myotubes differentiated in presence of compound; assay type: cell-based
Procedure: (§2) C2C12 murine skeletal muscle myoblasts were obtained from Koram Biotech (Republic of Korea). The cells were maintained in DMEM growth medium supplemented with 10% FBS, 1% penicillin, and streptomycin. When myoblasts proliferated to approximately 90%, they were differentiated into muscle fibers by treating them with DMEM differentiation medium supplemented with 2% HS, 1% penicillin, and streptomycin for 96 hours. Differentiated muscle fibers were treated with 10 μM Dex for 24 hours to induce sarcopenia. To evaluate the degree of differentiation of muscle cells, differentiating myoblasts were treated with the corresponding compound in differentiation medium for 24 or 48 hours.
The concentration of intracellular protein was measured using the Bradford assay (Bio-Rad, USA, CA), and electrophoresis was performed by loading on 10% and 12% polyacrylamide gels. Afterwards, the separated proteins were transferred to a PVDF membrane, and the primary antibody used was diluted 1:1000 in TBS-T containing 5% skim milk and incubated overnight at 4° C. Secondary antibodies were diluted 1:2000 and incubated for 35 minutes at room temperature (RT). Band intensity was measured using ImageJ 1.52 software (National Institutes of Health, USA), and intracellular protein was normalized to α-tubulin.
(§3) For quantitative real-time PCR, transcript levels of genes of interest were analyzed using the StepOnePlus real-time PCR system (Applied Biosystems, UK). Total RNA was reverse transcribed to prepare cDNA using AccuPower® RT PreMix (Bioneer Corporation). […] Denaturation was performed at 95° C. for 15 s, annealing was performed at 60° C. for 1 min, and extension was performed at 72° C. for 20 s with fluorescence detection at 72° C. after each cycle. After the final cycle, melting point analysis of all samples was performed within the range of 60 to 95° C. using continuous fluorescence detection. […] Results were expressed as relative expression levels for each gene. The synthesized cDNA was amplified by quantitative real-time PCR (qRT-PCR) or standard PCR.

[2] = tested on: Dex-treated C2C12 myotubes; experiment: SUNSET assay of protein synthesis in Dex-treated myotubes; assay type: cell-based, mouse
Procedure: as §1

Alox5 = Alox5 expression in Dex-treated myotubes (qPCR, Western blot); assay type: cell-based, mouse; details: qPCR and Western blotting
Procedure: as §2
The concentration of intracellular protein was measured using the Bradford assay (Bio-Rad, USA, CA), and electrophoresis was performed by loading on 10% and 12% polyacrylamide gels. […] Band intensity was measured using ImageJ 1.52 software (National Institutes of Health, USA), and intracellular protein was normalized to α-tubulin.
For quantitative real-time PCR, transcript levels of genes of interest were analyzed using the StepOnePlus real-time PCR system (Applied Biosystems, UK). […] Denaturation was performed at 95° C. for 15 s, annealing was performed at 60° C. for 1 min, and extension was performed at 72° C. for 20 s with fluorescence detection at 72° C. after each cycle. […]

LTB4 = LTB4 ELISA in C2C12 muscle fibers; assay type: cell-based, mouse; details: Dex-treated myotubes
Procedure: as §2, with “48 hours. An LTB4 ELISA kit was purchased from MyBioSource (CA, USA). The concentrations of LTB4 in skeletal muscles and cell lysates were measured by the enzyme-linked […] method according to the manufacturer's instructions. Samples (100 μL) were maintained at room temperature (RT) for 1 hour in 96 wells with polyclonal LTB4 antibody. Afterwards, an enzymatic reaction was performed to stop the process, and the absorbance was measured at 405 nm.” for “48 hours.”

atrogin-1 and MuRF-1 = experiment: qPCR of atrogin-1 and MuRF-1 in human myotubes; assay type: cell-based
Procedure: as §3, with “Corporation). The obtained cDNA was subjected to real-time PCR according to the manufacturer's instructions with the following changes. PCR was performed in triplicate in a total volume of 20 μL 2× Power SYBR Green PCR Master Mix (Enzynomics, Republic of Korea) containing 200 nM (final concentration) of each specific primer and 1 μL of cDNA synthesized from 1 μg of total RNA.” for “Corporation).”
Human-derived myoblasts were purchased from Thermo-Fisher Scientific (USA). […] Myotubes were stained with H&E. After light microscopy analysis of DIC captured images (Olympus CKX41), myotubes were measured using ImageJ 1.48 software (National Institutes of Health, USA).

## CC(C)OC(=O)C(C(=O)OC(C)C)=C1SC=CS1 [malotilate, Malotilate]
FoxO3a
  Atrogin-1 expression (Western blot): decrease
FoxO3a; Western blot
  FoxO3a phosphorylation levels: increased
LC3b, p62
  autophagy: reduced
  expression of p62: increases
  ratio of LC3bII to LC3bI: decreases
[1]; after 24 h of treatment, qPCR
  expression of master gene regulators of the myogenic program (Pax7, Myf5, MyoG, Myh2): no significant changes
[1]; differentiated myotubes
  phosphorylation level of Akt: not significantly altered
[1]; during myogenesis, Western blot
  expression of differentiation marker Myh2: not affected
[2]
  total protein synthesis: restored
Alox5
  Alox5 expression: did not affect
LTB4
  LTB4 levels: lowered
atrogin-1 and MuRF-1
  MuRF-1 expression: significantly reduced
  atrogin-1 expression: significantly reduced
